Experimental data as given in patent US6413944B1 (Regents of the University of Michigan, priority 1991, dated 2002).
Like-named read-outs stand apart in the source and are kept apart here.

What was measured:
HIV = type: cell-based; conditions: persistently infected monocyte/macrophages and T-cells; reverse transcriptase, p24 core antigen, infectious virus; in words
HIV-1 = test: microbe, parasite or virus in culture; conditions: for IC50: Human immunodeficiency virus 1, CEM-SS
Method: CEM-SS cells were seeded at 10,000 cells per well into 96-cell plates precoated with poly L-lysine. The cell monolayers were infected with about 50 plaque forming units of HIV-1. After 1 hr for virus attachment, the cell monolayers were overlaid with growth medium with or without added test compound. After 3 days incubation at 37° C. in a CO2 incubator, the cell monolayers received a second overlay of growth medium with or without added test compound and incubation at 37° C. continued for a total of 5 days. HIV-1 plaques were counted, the counts entered into a computer and a IC50 for HIV-1 plaque formation was determined. Each experiment was replicated at least once.
Dose-response relationships were used to compare drug effects. These were constructed by linearly regressing the percent inhibition of parameters derived in the preceding sections against log drug concentrations. The 50% inhibitory (I50) concentrations were calculated from the regression lines.

[1] = Cytotoxicity by uptake of [3H]thymidine in uninfected CEM-SS cells; type: cell-based; conditions: human; uptake of [3H]thymidine in uninfected CEM-SS cells (Table I); read-out: 50% Inhibitory Concentration, Cytotoxicity
Method: CEM-SS cells were seeded in 96 well plates (10,000 cells per well) in growth medium containing various concentrations of test compound and incubated at 37° C. in a CO2 incubator. After 36 hours incubation the cells were pulse-labeled for 4 hours at 37° C. with 1 μCi ^3H-TdR uptake into cellular DNA. Controls consisted of CEM-SS cells not treated with drug and pulse-labeled for 4 hours with [^3H]thymidine (positive control) or harvested immediately after addition of [^3H]thymidine (negative control). The harvested samples were counted by scintillation spectrometry to obtain a mean±one S.D. for each set of triplicate wells. The data were entered into a computer and used to determine a IC50 for cell cytotoxicity. Each experiment was replicated at least once.

HCMV = HCMV plaque (focus) reduction assay in HFF cells; type: cell-based, human cytomegalovirus; conditions: in words
RT = RT (Human immunodeficiency virus type 1 group M subtype B, UniProt P04585); test: RT inhibition assays; type: biochemical; conditions: in words

SMILES | activity in reducing HIV production in persistently infected cells (HIV) | IC50 (HIV-1; read-out: 50% Inhibitory Concentration, Antiviral Activity: HIV, syncytial assay in CEM-SS cells (Table I)) [nM] | IC50 (HIV-1; read-out: Syncytial Assay 50% Inhibitory Concentration, HIV-1G-691 (post AZT therapy), clinical isolate resistant to AZT) [nM] | IC50 (HIV-1; read-out: Syncytial Assay 50% Inhibitory Concentration, HIV-1G-762 (pre AZT therapy), clinical isolate sensitive to AZT) [nM] | IC50 (HIV-1; read-out: Syncytial Assay 50% Inhibitory Concentration, HIV-1G-910 (post AZT therapy)) [nM] | IC50 (HIV-1; read-out: Syncytial Assay 50% Inhibitory Concentration, HIV-1H-1112 (pre AZT therapy)) [nM] | IC50 (HIV-1; read-out: Syncytial Assay 50% Inhibitory Concentration, HIV-1IIIB (Table III)) [nM] | Differential Selectivity (HIV) (HIV-1; cytotoxicity in CEM-SS cells versus HIV syncytial assay) | IC50 at 36 h [1] [µM] | activity against HCMV (HCMV) | inhibition of RT enzyme (RT)
Cc1cn([C@H]2C[C@H](N=[N+]=[N-])[C@@H](CO)O2)c(=O)[nH]c1=O [AZT, zidovudine] | not active | 2.7 | 210 | 0.2 | 7200 | < 1 | 2 | 1852 | 5 | inactive | –
Nc1ccn([C@H]2CC[C@@H](CO)O2)c(=O)n1 [ddC, dideoxycytidine] | not active | – | – | – | – | – | – | – | – | – | –
CN1N=C(N)c2cn(C3OC(COP(=O)(O)OP(=O)(O)OP(=O)(O)O)C(O)C3O)c3ncnc1c23 (stereo not drawn) [TCN-triphosphate] | – | – | – | – | – | – | – | – | – | – | do not act via inhibition of this enzyme
